Values joined by “and” are separate entries in the source; they are usually repeats but may differ in a detail not shown here. Identical values can stand only once.
Key:
Type in all cases: cell-based
[1] = system: Enterobacter sakazakii ATCC 6538P; assay: ompA-PCR (469 bp) of EMA-treated Enterobacter sakazakii, band intensity of final amplified product; settings: multi-step treatment (EMA 10 μg/ml-incubation-EMA 10 μg/ml)
Experimental: (§1) A Gram-negative bacterium, Enterobacter sakazakii (Enterobacter sakazakii ATCC […]; hereinafter, abbreviated as “sakazakii” in some cases), was cultured in brain-heart infusion (BHI) broth at 37° C., and 5 ml of the culture medium in the logarithmic growth phase was centrifuged at 8,000×g for 15 minutes at 4° C., followed by removal of the supernatant. 5 ml of physiological saline was added to the bacterial cells, and the whole was vigorously stirred and diluted 10-fold. Thus, a live cell suspension was prepared. […] The live cell suspension (1 ml) was placed in a 1.5-ml microtube, and the microtube was immersed in boiling water for 2 minutes and immediately cooled with ice water, to thereby prepare a injured cell suspension. The cells in the suspension probably include small numbers of live cells and dead cells but include mainly injured cells. Therefore, the cells are simply referred to as “injured cells”. Note that the method of the present invention is originally intended to detect live cells, and microorganism cells distinguished from live cells may be injured cells or dead cells. Ethidium monoazide (EMA) was added to the live cell suspension and injured cell suspension of sakazakii prepared above at a final concentration of 0, 10, 25, or 100 μg/ml, and the suspensions were allowed to stand under shading at 4° C. for 10 minutes. The suspensions were placed on ice and irradiated for 5 minutes with a 500-W visible light (FLOOD PRF: 100 […] ELECTRIC CO., LTD., wavelength: 500 to 700 nm) at a distance of 20 cm from the suspensions. Then, the suspensions were centrifuged at 15,000×g for 10 minutes at 4° C., and the supernatants were removed. An equal volume of physiological saline was added thereto, and the suspensions were stirred and centrifuged while cooling at 15,000×g for 10 minutes at 4° C., followed by removal of the supernatants. An equal volume of brain-heart infusion (BHI) broth was added thereto, and the suspensions were incubated at 37° C. for 2 hours. In the first EMA treatment, EMA was not added again to the live cell and injured cell suspensions having an EMA concentration of 0, while EMA was added again at a final concentration of 10 μg/ml to the live cell and injured cell suspensions having an EMA concentration of 10, 25, or 100 μg/ml. The suspensions were allowed to stand under shading at 4° C. for 10 minutes, placed on ice, and irradiated for 5 minutes with a 500-W visible light at a distance of 20 cm from the suspensions. Ethidium monoazide (EMA) was added to the live cell and injured cell suspensions of sakazakii prepared in the section “1.” at a final concentration of 0, 10, 25 or 100 μg/ml, and the suspensions were allowed to stand under shading at 4° C. for 10 minutes, placed on ice, and irradiated for 5 minutes with a 500-W visible light (FLOOD PRF: […] ELECTRIC CO., LTD., wavelength: 500 to 700 nm) at a distance of 20 cm from the suspensions. Microtubes including one of the live cell and injured cell suspensions of sakazakii treated in the sections 2-1) and 2-2) above were centrifuged at 15,000×g for 10 minutes at 4° C. The supernatants were removed, and 1 ml of physiological saline was added thereto. The resultant suspensions were stirred vigorously and centrifuged while cooling in the same way as above (washing treatment). One more washing treatment was performed in the same way, and the same amount of sterile water as the initial amount was added to the pellets, followed by vigorous stirring. PCR Master Mix (total volume: 25.25 μl) was prepared using Direct Buffer Mix (G&g SCIENCE CO., LTD., Yokohama, Kanagawa) capable of sequentially and automatically performing elution of chromosomal DNA from a bacterium and PCR reactions. […]

Enterobacter sakazakii = assay: as above
Experimental: as §1

[2] = system: Enterobacter sakazakii ATCC 6538P; assay: ompA real-time PCR (469 bp) of EMA-treated Enterobacter sakazakii, Ct value
[3] = system: Enterobacter sakazakii ATCC 6538P; assay: MMS-PCR of EMA-treated Enterobacter sakazakii, band intensity of final amplified product; settings: for bands of MMS gene amplified products (electrophoresis, FIG. 3): multi-step treatment (EMA 10 μg/ml-incubation-EMA 10 μg/ml)
Experimental: as §1

[4] = system: Salmonella enteritidis IIP 604; assay: invA real-time PCR (378 bp) of EMA-treated Salmonella, Ct value
[5] = system: Listeria monocytogenes JCM 2873; assay: hlyA-PCR of EMA-treated Listeria (live and injured cells), band intensity of final amplified product on agarose gel; settings: for bands of hlyA gene amplified products (electrophoresis, FIG. 1): multi-step treatment (EMA 100 μg/ml-incubation-EMA 25 or 10 μg/ml); for bands estimated as hlyA gene amplified products (electrophoresis, FIG. 1): single-step treatment, live cells and injured cells
[6] = multi-step: EMA 10 μg/ml + Incubation (37° C., 2 hr) + EMA 10 μg/ml, Injured cell
[7] = multi-step: EMA 10 μg/ml + Incubation (37° C., 2 hr) + EMA 10 μg/ml, Live cell
[8] = single-step EMA 10 μg/ml, Injured cell
[9] = single-step EMA 10 μg/ml, Live cell
[10] = single-step EMA 25 μg/ml, Injured cell
[11] = single-step EMA 25 μg/ml, Live cell
[12] = single-step EMA 100 μg/ml, Injured cell
[13] = single-step EMA 100 μg/ml, Live cell
[14] = two-step EMA 10/10 μg/ml, Injured cell
[15] = two-step EMA 10/10 μg/ml, Live cell
[16] = two-step EMA 25/10 μg/ml, Injured cell
[17] = two-step EMA 25/10 μg/ml, Live cell
[18] = two-step EMA 100/10 μg/ml, Injured cell
[19] = two-step EMA 100/10 μg/ml, Live cell

Structure (SMILES): CC[n+]1c(-c2ccccc2)c2cc(N=[N+]=[N-])ccc2c2ccc(N)cc21 [EMA, ethidium monoazide]
- bands of ompA gene amplified products (electrophoresis, FIG. 2) ([1]; injured cells): no band was detected
- bands of ompA gene amplified products (electrophoresis, FIG. 2) ([1]; live cells): bands were clearly detected
- Band Intensity (Enterobacter sakazakii; [6]): 0.000
- Band Intensity (Enterobacter sakazakii; [7]): 1.546
- Band Intensity (Enterobacter sakazakii; [8]): 0.502
- Band Intensity (Enterobacter sakazakii; [9]): 1.690
- Ct value (mean ± SD, N = 2) [2, 8]: 36.3, ND^c,d
- number of times of positive reaction in two PCR assays (i/2) [2, 8]: (1/2)
- Ct value (mean ± SD, N = 2) [2, 9]: 18.8 ± 0.3
- number of times of positive reaction in two PCR assays (i/2) [2, 9]: (2/2)
- Ct value (mean ± SD, N = 2) [2, 10]: ND, ND
- number of times of positive reaction in two PCR assays (i/2) [2, 10]: (0/2)
- Ct value (mean ± SD, N = 2) [2, 11]: 20.9±0.6
- number of times of positive reaction in two PCR assays (i/2) [2, 11]: (2/2)
- Ct value (mean ± SD, N = 2) [2, 12]: 35.0, ND
- number of times of positive reaction in two PCR assays (i/2) [2, 12]: (1/2)
- Ct value (mean ± SD, N = 2) [2, 13]: 23.9 ± 0.9
- number of times of positive reaction in two PCR assays (i/2) [2, 13]: (2/2)
- Ct value (mean ± SD, N = 2) [2, 14]: ND, ND
- number of times of positive reaction in two PCR assays (i/2) [2, 14]: (0/2)
- Ct value (mean ± SD, N = 2) [2, 15]: 15.9±0.4
- number of times of positive reaction in two PCR assays (i/2) [2, 15]: (2/2)
- Ct value (mean ± SD, N = 2) [2, 16]: ND, ND
- number of times of positive reaction in two PCR assays (i/2) [2, 16]: (0/2)
- Ct value (mean ± SD, N = 2) [2, 17]: 20.1 ± 1.6
- number of times of positive reaction in two PCR assays (i/2) [2, 17]: (2/2)
- Ct value (mean ± SD, N = 2) [2, 18]: 36.0, ND
- number of times of positive reaction in two PCR assays (i/2) [2, 18]: (1/2)
- Ct value (mean ± SD, N = 2) [2, 19]: 23.6 ± 0.4
- number of times of positive reaction in two PCR assays (i/2) [2, 19]: (2/2)
- bands of MMS gene amplified products (electrophoresis, FIG. 3) ([3]; injured cells): no band was detected
- bands of MMS gene amplified products (electrophoresis, FIG. 3) ([3]; live cells): bands were clearly detected
- Band Intensity [3, 6]: 0.000
- Band Intensity [3, 7]: 0.997
- Band Intensity [3, 8]: 0.855
- Band Intensity [3, 9]: 0.845
- Ct value (mean ± SD, N = 2) [4, 8]: 31.6 ± 4.7
- number of times of positive reaction in two PCR assays (i/2) [4, 8]: (2/2)
- Ct value (mean ± SD, N = 2) [4, 9]: 16.2 ± 0.4
- number of times of positive reaction in two PCR assays (i/2) [4, 9]: (2/2)
- Ct value (mean ± SD, N = 2) [4, 10]: ND, ND^c,d
- number of times of positive reaction in two PCR assays (i/2) [4, 10]: (0/2)
- Ct value (mean ± SD, N = 2) [4, 11]: 18.23±0.3 and 18.2 ± 0.3
- number of times of positive reaction in two PCR assays (i/2) [4, 11]: (2/2)
- Ct value (mean ± SD, N = 2) [4, 12]: ND, ND
- number of times of positive reaction in two PCR assays (i/2) [4, 12]: (0/2)
- Ct value (mean ± SD, N = 2) [4, 13]: 27.7±3.8 and 27.7 ± 3.6
- number of times of positive reaction in two PCR assays (i/2) [4, 13]: (2/2)
- Ct value (mean ± SD, N = 2) [4, 14]: ND, ND
- number of times of positive reaction in two PCR assays (i/2) [4, 14]: (0/2)
- Ct value (mean ± SD, N = 2) [4, 15]: 16.0±3.5
- number of times of positive reaction in two PCR assays (i/2) [4, 15]: (2/2)
- Ct value (mean ± SD, N = 2) [4, 16]: ND, ND
- number of times of positive reaction in two PCR assays (i/2) [4, 16]: (0/2)
- Ct value (mean ± SD, N = 2) [4, 17]: 18.9 ± 2.2
- number of times of positive reaction in two PCR assays (i/2) [4, 17]: (2/2)
- Ct value (mean ± SD, N = 2) [4, 18]: ND, ND
- number of times of positive reaction in two PCR assays (i/2) [4, 18]: (0/2)
- Ct value (mean ± SD, N = 2) [4, 19]: 27.9 ± 3.0
- number of times of positive reaction in two PCR assays (i/2) [4, 19]: (2/2)
- bands of hlyA gene amplified products (electrophoresis, FIG. 1) ([5]; injured cells): few or no bands were detected
- bands of hlyA gene amplified products (electrophoresis, FIG. 1) ([5]; live cells): bands were clearly detected
- Band Intensity ([5]; multi-step: EMA 100 μg/ml + Incubation (30° C., 2 hr) + EMA 10 μg/ml, Injured cell): 0.094
- Band Intensity ([5]; multi-step: EMA 100 μg/ml + Incubation (30° C., 2 hr) + EMA 10 μg/ml, Live cell): 1.420
- Band Intensity ([5]; multi-step: EMA 100 μg/ml + Incubation (30° C., 2 hr) + EMA 25 μg/ml, Injured cell): 0.024
- Band Intensity ([5]; multi-step: EMA 100 μg/ml + Incubation (30° C., 2 hr) + EMA 25 μg/ml, Live cell): 1.135
- Band Intensity [5, 8]: 1.539
- Band Intensity [5, 9]: 1.141
- Band Intensity [5, 10]: 0.418
- Band Intensity [5, 11]: 0.479
- bands estimated as hlyA gene amplified products (electrophoresis, FIG. 1) ([5]; EMA 10 μg/ml): detected in both the live cells and injured cells
- bands estimated as hlyA gene amplified products (electrophoresis, FIG. 1) ([5]; EMA 25 μg/ml): almost disappeared in both the live cells and injured cells

Source: patent US8221975B2, “Method for detection of microorganism” (Morinaga Milk Industry Co., Ltd., priority 2007, dated 2012)
